Test [1] concerns Huh-7. Description: Induction of apoptosis in human HuH7 cells assessed as increase in late apoptotic cells at 100 uM incubated for 48 hrs by annexin V and 7-AAD staining based assay. The test is classed as functional, cell-based.
Test [2] relates to Huh-7. Description: Induction of apoptosis in human HuH7 cells assessed as increase in necrotic cells at 100 uM incubated for 48 hrs by annexin V and 7-AAD staining based assay. The test is classed as functional, cell-based.
Test [3] deals with Huh-7. Description: Induction of apoptosis in human HuH7 cells transfected with ShSGK1 assessed as late apoptosis at 100 uM incubated for 48 hrs by annexin V and 7-AAD staining based assay. The test is classed as functional, cell-based.
Test [4] relates to Huh-7. Briefly: Induction of apoptosis in human HuH7 cells overexpressing SGK1 at 100 uM incubated for 48 hrs by annexin V and 7-AAD staining based assay. The test is classed as functional, cell-based.
Test [5] concerns Huh-7. Description: Induction of apoptosis in human HuH7 cells transfected with ShSGK1 assessed as early apoptosis at 100 uM incubated for 48 hrs by annexin V and 7-AAD staining based assay. The test is classed as functional, cell-based.
The target of test [6] is T1, Serine/threonine-protein kinase Sgk1 (Homo sapiens) (UniProt O00141).
T1 sequence (whole entry): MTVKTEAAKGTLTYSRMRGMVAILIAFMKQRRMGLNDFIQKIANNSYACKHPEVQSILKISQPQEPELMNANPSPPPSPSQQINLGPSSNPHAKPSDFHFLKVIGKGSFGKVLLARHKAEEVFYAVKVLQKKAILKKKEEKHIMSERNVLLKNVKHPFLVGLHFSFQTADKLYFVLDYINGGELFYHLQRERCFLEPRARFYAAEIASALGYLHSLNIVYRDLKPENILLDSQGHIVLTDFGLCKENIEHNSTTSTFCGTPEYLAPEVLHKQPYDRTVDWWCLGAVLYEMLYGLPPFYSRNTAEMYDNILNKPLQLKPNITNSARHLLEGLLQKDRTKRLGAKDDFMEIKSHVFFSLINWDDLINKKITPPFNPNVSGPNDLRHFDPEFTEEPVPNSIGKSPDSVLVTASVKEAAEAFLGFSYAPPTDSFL
Briefly: Inhibition of recombinant human N-terminal His-tagged SGK1 at 50 uM using (GRPRTSSFAEGKK) peptide as substrate incubated for 30 mins in presence of [32P] gamma ATP by scintillation counter method.

Test [7] relates to Huh-7. Briefly: Antiproliferative activity against human HuH7 cells transfected with ShSGK1 assessed as reduction in cell viability at 100 uM incubated for 48 hrs by trypan blue dye based assay. The test is classed as functional.
Test [8] deals with Huh-7. Briefly: Induction of apoptosis in human HuH7 cells assessed as increase in early apoptotic cells at 100 uM incubated for 48 hrs by annexin V and 7-AAD staining based assay. The test is classed as functional, cell-based.
The target of test [9] is T1, Serine/threonine-protein kinase Sgk1 (Homo sapiens). Briefly: Inhibition of recombinant human N-terminal His-tagged SGK1 using (GRPRTSSFAEGKK) peptide as substrate incubated for 30 mins in presence of [32P] gamma ATP by scintillation counter method.
For test [10], the system named is Huh-7. Description: Antiproliferative activity against human HuH7 cells assessed as reduction in cell viability at 100 uM incubated for 48 hrs by trypan blue dye based assay. The test is classed as functional.
Test [11] has as its target T1, Serine/threonine-protein kinase Sgk1 (Homo sapiens). Description: Inhibition of SGK1 in human HUH7 cells at 100 uM using peptide as substrate incubated for 6 hrs by scintillation counter method. The test is classed as cell-based.
Test [12] deals with Huh-7. Briefly: Induction of apoptosis in human HuH7 cells overexpressing EGFP at 100 uM incubated for 48 hrs by annexin V and 7-AAD staining based assay. The test is classed as functional, cell-based.
In test [13] the target is T1, Serine/threonine-protein kinase Sgk1 (Homo sapiens). Briefly: Inhibition of SGK1 in human HuH7 cells assessed as reduction in insulin-induced MDM2 phosphorylation on Ser166 at 100 uM incubated for 6 hrs by Western blot analysis. The test is classed as cell-based. A general note: A western blot detects proteins with antibodies after separation by electrophoresis.
For test [14] the target is unchanged. Description: Inhibition of insulin-induced SGK1 in human HUH7 cells at 100 uM using peptide as substrate incubated for 6 hrs by scintillation counter method. The test is classed as cell-based.
The test system of test [15] is Huh-7. Description: Antiproliferative activity against human HuH7 cells overexpressing SGK1 assessed as reduction in cell viability at 100 uM incubated for 48 hrs by trypan blue dye based assay. The test is classed as functional.
Test [16] relates to Huh-7. Briefly: Antiproliferative activity against human HuH7 cells overexpressing EGFP assessed as reduction in cell viability at 100 uM incubated for 48 hrs by trypan blue dye based assay. The test is classed as functional.

For orientation: inhibition means the drop in the measured response relative to a control, in per cent.

Each structure is given as a SMILES string. Calls of active or inactive are those of the source. The rule behind the calls is not given here.

`Oc1ccc(/C=C/c2cc(O)cc(O)c2)cc1`: the result in the test with Huh-7 [1], in the test on Huh-7 [2], in the test with Huh-7 [3], in the test with Huh-7 [5], in the test with Huh-7 [7] and with Huh-7 [8] was Active. The result with Huh-7 [10], in the test with Huh-7 [12] and in the test on Huh-7 [16] was Active. The result in the test on Huh-7 [4] and in the test on Huh-7 [15] was inactive. For the same compound, the inhibition is 50% in [6] and “Dose-dependent effect” in test [9]. Further, the inhibition entry in test [11] was “inactive”. In addition, the inhibition result in [13] and in test [14] was “Active” in each case.
